The results in this text go back to patent publication US20240415819A1, “MACROCYCLIC COMPOUNDS AS PROTEASOME SUBUNIT BETA TYPE-5 INHIBITORS” (Lead Discovery Center GmbH, priority 2021, published 2024).

The subject of one assay is HT-29 cells. As to the kind of experiment: CellTiter-Glo luminescent cell viability assay with HT-29 cells (72h incubation). It counts as cell-based, human. To be noted: Homo sapiens, HT-29, HT29 cells, read-out: CTG HT29. The method, boiled down:
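400 cells per well in DMEM/10% FCS were dosed after 24 h and kept 72 h at 37 °C, 5% CO2. ATP-based luminescence (CellTiter-Glo) normalized to DMSO and 10 μM staurosporine controls; IC50 by dose-response fit.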

Assay [1] concerns A549 (human lung carcinoma cell line). As to the kind of experiment: Glo assay of A549 cells (Table 3; ProteasomeGlo plating scheme). Type of assay: cell-based. To be noted: Homo sapiens; A549 cells; read-out: PGLo A549. The method, boiled down:
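IC50 values (nM) come from a cell-based chymotrypsin-like Proteasome-Glo luminescence assay. Compound exposure ran 105 min at 37° C.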

SMILES strings stand for the structures.

Regarding `COc1cccc(CC(=O)N[C@H]2CC(=O)N3CCCC(CCOc4ccc(C)c(c4)CNC(=O)[C@H](CCc4ccccc4)NC2=O)C3)c1` (stereo partly drawn) [Compound 85, 2-(3-methoxyphenyl)-N-((9S,12S)-5^4-methyl-8,11,14-trioxo-9-phenethyl-4-oxa-7,10-diaza-1(3,1)-piperidina-5(1,3)-benzenacyclotetradecaphane-12-yl)acetamide], the IC50 (in the assay with HT-29 cells; in assay [1]) was under 100 nM throughout.

With `CO[C@@H](C(=O)N[C@H]1CC(=O)N2CCCC(CCOc3ccc(C)c(c3)CNC(=O)[C@H](CCc3ccccc3)NC1=O)C2)c1ccccc1` (stereo partly drawn) [Compound 86, (2R)-2-methoxy-N-((9S,12S)-5^4-methyl-8,11,14-trioxo-9-phenethyl-4-oxa-7,10-diaza-1(3,1)-piperidina-5(1,3)-benzenacyclotetradecaphane-12-yl)-2-phenylacetamide], the IC50 (with HT-29 cells; in assay [1]) was under 100 nM throughout.

Regarding `Cc1ccc2cc1CNC(=O)[C@H](CCc1ccccc1)NC(=O)[C@@H](NC(=O)c1cc3cc(C(F)(F)F)ccc3n1C)CC(=O)N1CCCC(CCO2)C1` (stereo partly drawn) [Compound 87, 1-methyl-N-((9S,12S)-5^4-methyl-8,11,14-trioxo-9-phenethyl-4-oxa-7,10-diaza-1(3,1)-piperidina-5(1,3)-benzenacyclotetradecaphane-12-yl)-5-(trifluoromethyl)-1H-indole-2-carboxamide], the IC50 (in the assay with HT-29 cells; in assay [1]) was under 100 nM throughout.

For the molecule `Cc1ccc2cc1CNC(=O)[C@H](CCc1ccccc1)NC(=O)[C@@H](NC(=O)CN1CCOCC1)CC(=O)N1CCCC(CCO2)C1` (stereo partly drawn) [Compound 88, N-((9S,12S)-5^4-methyl-8,11,14-trioxo-9-phenethyl-4-oxa-7,10-diaza-1(3,1)-piperidina-5(1,3)-benzenacyclotetradecaphane-12-yl)-2-morpholinoacetamide], the IC50 (with HT-29 cells; in assay [1]) was under 100 nM in each case.

For `Cc1ccc2cc1CNC(=O)[C@H](CCc1ccccc1)NC(=O)[C@@H](NC(=O)CN1CCCC1)CC(=O)N1CCCC(CCO2)C1` (stereo partly drawn) [Compound 89, N-((9S,12S)-5^4-methyl-8,11,14-trioxo-9-phenethyl-4-oxa-7,10-diaza-1(3,1)-piperidina-5(1,3)-benzenacyclotetradecaphane-12-yl)-2-(pyrrolidin-1-yl)acetamide], the IC50 (with HT-29 cells; in assay [1]) was under 100 nM in each case.

Take `Cc1ccc2cc1CNC(=O)C(c1cnn(C)c1)NC(=O)CCC(=O)N1CCCC(CCO2)C1` (centres unmarked) [Compound 116, 5^4-methyl-9-(1-methyl-1H-pyrazol-4-yl)-4-oxa-7,10-diaza-1(3,1)-piperidina-5(1,3)-benzenacyclotetradecaphane-8,11,14-trione]: the IC50 in the assay with HT-29 cells was 100 to 500 nM; in assay [1], over 5000 nM.

As for `Cc1cc2cc(c1C)CNC(=O)[C@H](Cc1c[nH]c3ccccc13)NC(=O)CCC(=O)N1CCCC(CCO2)C1` (stereo partly drawn) [Compound 120, (9S)-9-((1H-indol-3-yl)methyl)-5^4,5^5-dimethyl-4-oxa-7,10-diaza-1(3,1)-piperidina-5(1,3)-benzenacyclotetradecaphane-8,11,14-trione], the IC50 in the assay on HT-29 cells lay in the range of 100 to 500 nM; in assay [1] it was 1000 to 5000 nM.

Turning to `Cc1ccc2cc1CNC(=O)[C@H](CCc1ccccc1)NC(=O)[C@@H](NC(=O)CN1CCNCC1)CC(=O)N1CCCC(CCO2)C1` (stereo partly drawn) [Compound 126, N-((9S,12S)-5^4-methyl-8,11,14-trioxo-9-phenethyl-4-oxa-7,10-diaza-1(3,1)-piperidina-5(1,3)-benzenacyclotetradecaphane-12-yl)-2-(piperazin-1-yl)acetamide], the figures for the IC50 (in the assay with HT-29 cells; in assay [1]) were 100 to 500 nM and under 100 nM, respectively.

Regarding `Cc1ccc2cc1CNC(=O)[C@H](CCc1ccccc1)NC(=O)[C@@H](NC(=O)Cc1cccc(N)c1)CC(=O)N1CCCC(CCO2)C1` (stereo partly drawn) [Compound 127, 2-(3-aminophenyl)-N-((9S,12S)-5^4-methyl-8,11,14-trioxo-9-phenethyl-4-oxa-7,10-diaza-1(3,1)-piperidina-5(1,3)-benzenacyclotetradecaphane-12-yl)acetamide], the IC50 (in the assay with HT-29 cells; in assay [1]) was under 100 nM each time.

Regarding `Cc1ccc2cc1CNC(=O)[C@H](CCc1ccccc1)NC(=O)[C@@H](NC(=O)Cc1ccc(N)cc1)CC(=O)N1CCCC(CCO2)C1` (stereo partly drawn) [Compound 128, 2-(4-aminophenyl)-N-((9S,12S)-5^4-methyl-8,11,14-trioxo-9-phenethyl-4-oxa-7,10-diaza-1(3,1)-piperidina-5(1,3)-benzenacyclotetradecaphane-12-yl)acetamide], the IC50 (in the assay on HT-29 cells; in assay [1]) was under 100 nM each time.

Take `CNCC(=O)N[C@H]1CC(=O)N2CCCC(CCOc3ccc(C)c(c3)CNC(=O)[C@H](CCc3ccccc3)NC1=O)C2` (stereo partly drawn) [Compound 129, N-((9S,12S)-5^4-methyl-8,11,14-trioxo-9-phenethyl-4-oxa-7,10-diaza-1(3,1)-piperidina-5(1,3)-benzenacyclotetradecaphane-12-yl)-2-(methylamino)acetamide]: the IC50 (in the assay on HT-29 cells; in assay [1]) was under 100 nM each time.

For `CNCCOCC(=O)N[C@H]1CC(=O)N2CCCC(CCOc3ccc(C)c(c3)CNC(=O)[C@H](CCc3ccccc3)NC1=O)C2` (stereo partly drawn) [Compound 130, N-((9S,12S)-5^4-methyl-8,11,14-trioxo-9-phenethyl-4-oxa-7,10-diaza-1(3,1)-piperidina-5(1,3)-benzenacyclotetradecaphane-12-yl)-2-(2-(methylamino)ethoxy)acetamide], the IC50 (in the assay on HT-29 cells; in assay [1]) was 100 to 500 nM throughout.

In the case of `Cc1ccc2cc1CNC(=O)[C@H](CCc1ccccc1)NC(=O)[C@@H](NC(=O)C1(F)CCNCC1)CC(=O)N1CCCC(CCO2)C1` (stereo partly drawn) [Compound 134, 4-fluoro-N-((9S,12S)-5^4-methyl-8,11,14-trioxo-9-phenethyl-4-oxa-7,10-diaza-1(3,1)-piperidina-5(1,3)-benzenacyclotetradecaphane-12-yl)piperidine-4-carboxamide], the IC50 (in the assay on HT-29 cells; in assay [1]) was under 100 nM each time.

As to `Cc1ccc2cc1CNC(=O)[C@H](CCc1ccccc1)NC(=O)[C@@H](NC(=O)C1CC(F)(F)CN1)CC(=O)N1CCCC(CCO2)C1` (stereo partly drawn) [Compound 135, (2S)-4,4-difluoro-N-((9S,12S)-5^4-methyl-8,11,14-trioxo-9-phenethyl-4-oxa-7,10-diaza-1(3,1)-piperidina-5(1,3)-benzenacyclotetradecaphane-12-yl)pyrrolidine-2-carboxamide], the IC50 (in the assay with HT-29 cells; in assay [1]) was under 100 nM each time.

As to `Cc1ccc2cc1CNC(=O)[C@H](CCc1ccccc1)NC(=O)[C@@H](NC(=O)C1(C)CCNCC1)CC(=O)N1CCCC(CCO2)C1` (stereo partly drawn) [Compound 136, 4-methyl-N-((9S,12S)-5^4-methyl-8,11,14-trioxo-9-phenethyl-4-oxa-7,10-diaza-1(3,1)-piperidina-5(1,3)-benzenacyclotetradecaphane-12-yl)piperidine-4-carboxamide], the IC50 was 100 to 500 nM in the assay with HT-29 cells and under 100 nM in assay [1].

Regarding `CC(=O)N[C@H]1CCC(=O)N2CCOC(CCOc3ccc(C)c(c3)CNC(=O)[C@H](CCc3ccccc3)NC1=O)C2` (stereo partly drawn) [Compound 143, N-((9S,12S)-5^4-methyl-8,11,15-trioxo-9-phenethyl-4-oxa-7,10-diaza-1(2,4)-morpholina-5(1,3)-benzenacyclopentadecaphane-12-yl)acetamide], the IC50 (with HT-29 cells; in assay [1]) was 100 to 500 nM throughout.
